# *1 amine or outer side, *2 acyl side, *3 side chain or, on linkers, in order; H or OH if unused. Where a SMILES comes first, the peptide text is derived from it. Side-chain parts run from the residue outwards. [ ]: non-standard residue; d: D form. The star is where a group is joined. γGlu = O=C(O)[C@H](CCC(=O)[*:2])N[*:1]; Palmitoyl = CCCCCCCCCCCCCCCC(=O)*; Aib = CC(C)(N)C(=O)O
# Target: T1, human GLP-1 receptor (hGLP-1 R) (Homo sapiens, UniProt P43220)
# T1 construct: expressed in transfected cells; host or cells: HEK-293
# Assay: cAMP response (HTRF) of HEK-293 cells stably expressing human GLP-1 receptor
# Format: cell-based
# Conditions: HEK-293 cells expressing human GLP-1 receptor, cAMP formation
# Method: cAMP content of cells was determined using a kit from Cisbio Corp. (cat. no. 62AM4PEC) based on HTRF (Homogenous Time Resolved Fluorescence). For preparation, cells were split into T175 culture flasks and grown overnight to near confluency in medium (DMEM/10% FBS). Medium was then removed and cells washed with PBS lacking calcium and magnesium, followed by proteinase treatment with accutase (Sigma-Aldrich cat. no. A6964). Detached cells were washed and resuspended in assay buffer (1×HBSS; 20 mM HEPES, 0.1% BSA, 2 mM IBMX) and cellular density determined. […] For measurement, 25 μl of test compound in assay buffer was added to the wells, followed by incubation for 30 minutes at room temperature.
# T1 sequence (P43220 24-463): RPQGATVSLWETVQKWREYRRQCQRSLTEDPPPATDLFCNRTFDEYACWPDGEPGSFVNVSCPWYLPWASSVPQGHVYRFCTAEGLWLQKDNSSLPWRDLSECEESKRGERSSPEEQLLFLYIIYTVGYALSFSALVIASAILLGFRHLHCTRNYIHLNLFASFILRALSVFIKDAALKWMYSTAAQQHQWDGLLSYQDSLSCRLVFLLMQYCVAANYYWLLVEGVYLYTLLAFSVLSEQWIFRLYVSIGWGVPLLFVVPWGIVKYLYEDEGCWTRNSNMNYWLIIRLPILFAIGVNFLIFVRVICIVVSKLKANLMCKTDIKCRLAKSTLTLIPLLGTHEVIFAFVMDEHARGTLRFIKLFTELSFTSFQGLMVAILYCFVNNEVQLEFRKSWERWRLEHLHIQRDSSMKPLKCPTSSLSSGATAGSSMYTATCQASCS
row,Compound,EC50 [pM]
1,CCCCCCCCCCCCCCCC(=O)N[C@@H](CCC(=O)NCCCC[C@H](NC(=O)[C@H](CO)NC(=O)[C@@H]1CCCN1C(=O)[C@@H]1CCCN1C(=O)[C@@H]1CCCN1C(=O)[C@H](C)NC(=O)CNC(=O)[C@H](CO)NC(=O)[C@H](CO)NC(=O)[C@@H]1CCCN1C(=O)CNC(=O)CNC(=O)[C@H](CC(N)=O)NC(=O)[C@H](CCCCN)NC(=O)[C@H](CC(C)C)NC(=O)[C@H](Cc1c[nH]c2ccccc12)NC(=O)[C@H](CCC(=O)O)NC(=O)[C@@H](NC(=O)[C@H](Cc1ccccc1)NC(=O)[C@H](CC(=O)O)NC(=O)[C@H](CCC(N)=O)NC(=O)[C@H](C)NC(=O)[C@H](CCCNC(=N)N)NC(=O)[C@H](CCCNC(=N)N)NC(=O)[C@H](CO)NC(=O)[C@H](CC(=O)O)NC(=O)[C@H](CCSC)NC(=O)[C@H](CCC(N)=O)NC(=O)[C@H](CCCCN)NC(=O)[C@H](CO)NC(=O)[C@H](CC(C)C)NC(=O)[C@H](CC(=O)O)NC(=O)[C@H](CO)NC(=O)[C@@H](NC(=O)[C@H](Cc1ccccc1)NC(=O)[C@@H](NC(=O)CNC(=O)[C@H](CCC(N)=O)NC(=O)C(C)(C)NC(=O)[C@@H](N)Cc1c[nH]cn1)[C@@H](C)O)[C@@H](C)O)[C@@H](C)CC)C(N)=O)C(=O)O [(59)] (H-H[Aib]QGTFTSDLSKQMDSRRAQDFIEWLKNGGPSSGAPPPSK([γGlu-Palmitoyl])-NH2),2.9
2,CCCCCCCCCCCCCCCC(=O)N[C@@H](CCC(=O)NCCCC[C@H](NC(=O)[C@H](CO)NC(=O)[C@@H]1CCCN1C(=O)[C@@H]1CCCN1C(=O)[C@@H]1CCCN1C(=O)[C@H](C)NC(=O)CNC(=O)[C@H](CO)NC(=O)[C@H](CO)NC(=O)[C@@H]1CCCN1C(=O)CNC(=O)CNC(=O)C(C)(C)NC(=O)[C@H](CCCCN)NC(=O)[C@H](CC(C)C)NC(=O)[C@H](Cc1c[nH]c2ccccc12)NC(=O)[C@H](CCC(=O)O)NC(=O)[C@@H](NC(=O)[C@H](Cc1ccccc1)NC(=O)[C@H](CC(=O)O)NC(=O)[C@H](CCC(N)=O)NC(=O)[C@H](C)NC(=O)[C@H](CCCNC(=N)N)NC(=O)[C@H](CCCNC(=N)N)NC(=O)[C@H](CO)NC(=O)[C@H](CC(=O)O)NC(=O)[C@H](CCSC)NC(=O)[C@H](CCC(N)=O)NC(=O)[C@H](CCCCN)NC(=O)[C@H](CO)NC(=O)[C@H](CC(C)C)NC(=O)[C@H](CC(=O)O)NC(=O)[C@H](CO)NC(=O)[C@@H](NC(=O)[C@H](Cc1ccccc1)NC(=O)[C@@H](NC(=O)CNC(=O)[C@H](CCC(N)=O)NC(=O)[C@@H](CO)NC(=O)[C@@H](N)Cc1c[nH]cn1)[C@@H](C)O)[C@@H](C)O)[C@@H](C)CC)C(N)=O)C(=O)O [(72)] (H-H[dS]QGTFTSDLSKQMDSRRAQDFIEWLK[Aib]GGPSSGAPPPSK([γGlu-Palmitoyl])-NH2),5.2
3,CC[C@H](C)[C@H](NC(=O)[C@H](Cc1ccccc1)NC(=O)[C@H](CC(=O)O)NC(=O)[C@H](CCC(N)=O)NC(=O)[C@H](C)NC(=O)[C@H](CCCNC(=N)N)NC(=O)[C@H](CCCNC(=N)N)NC(=O)[C@H](CO)NC(=O)[C@H](CC(=O)O)NC(=O)[C@H](CCSC)NC(=O)[C@H](CCC(N)=O)NC(=O)[C@H](CCCCN)NC(=O)[C@H](CO)NC(=O)[C@H](CC(C)C)NC(=O)[C@H](CC(=O)O)NC(=O)[C@H](CO)NC(=O)[C@@H](NC(=O)[C@H](Cc1ccccc1)NC(=O)[C@@H](NC(=O)CNC(=O)[C@H](CCC(N)=O)NC(=O)[C@H](C)NC(=O)[C@@H](N)Cc1c[nH]cn1)[C@@H](C)O)[C@@H](C)O)C(=O)N[C@@H](CCC(=O)O)C(=O)N[C@@H](Cc1c[nH]c2ccccc12)C(=O)N[C@@H](CC(C)C)C(=O)N[C@@H](CCCCN)C(=O)N[C@@H](CC(N)=O)C(=O)NCC(=O)NCC(=O)N1CCC[C@H]1C(=O)N[C@@H](CO)C(=O)N[C@@H](CO)C(=O)NCC(=O)N[C@@H](C)C(=O)N1CCC[C@H]1C(=O)N1CCC[C@H]1C(=O)N1CCC[C@H]1C(=O)N[C@@H](CO)C(N)=O [(39)] (H-HAQGTFTSDLSKQMDSRRAQDFIEWLKNGGPSSGAPPPS-NH2),4.6

# Reference: US9181305B2, “Exendin-4 peptide analogues” (SANOFI, priority 2012, dated 2015)
